Assay results reported in patent EP0686635A1, “Pyridylthiazolidinecarboxylic acid amide derivatives, their preparation and their therapeutic uses” (Sankyo Company Limited, priority 1991, dated 1993).
Values after ≈ are worked out from the molar mass of the structure shown. Like-named read-outs stand apart in the source and are kept apart here.

Assays:
[1] = system: passive cutaneous anaphylaxis (PCA) in rats; assay: Inhibitory effect on passive cutaneous anaphylaxis (PCA) in rats; assay type: in vivo; details: dose 6.4 mg/kg p.o., 60 minutes before antigen challenge, exuded Evans Blue vs control group
Experimental: According to Mota's method [I. Mota, Immunology, 7, 681 - 699 (1964)], antiserum (256 times the PCA titer) of rat against egg albumin was prepared and diluted four times with physiological saline. Male SD rats (5 weeks old) were used as the test animals in groups, each containing 4 animals. The rats were sensitized by intradermal injection of 0.05 ml of the diluted antiserum solution in the dorsal position. 48 hours after this injection, a suspension of the test compound in an aqueous 0.5% w/v tragacanth solution was orally administered to the rats, which had been fasted for one day, and 60 minutes later they were injected in the caudal vein with 5 ml/kg body weight of physiological saline containing 0.4% w/v egg albumin and 1.0% w/v Evans Blue. 30 minutes after this last injection, the rats were sacrificed with carbon dioxide and the Evans Blue exuded in the dorsal intradermal portion was determined according to Harada's method (Harada et al., J. Pharm. Pharmac., 23, 218 - 219 (1971)].
The results achieved from the test groups which were treated with a test compound were evaluated to determine the inhibitory rate by comparison with the average amount of exuded dye in a control group, which was not given the test compound.
The inhibitory rate was calculated by the following equation. Inhibitory rate (%) = (1-B/A) x 100 [formula] A: amount of exuded dye in the control group B: amount of exuded dye in the test group.

[2] = system: PAF-induced blood platelet aggregation; assay: Inhibitory effect in vitro against PAF-induced blood platelet aggregation; assay type: cell-based; details: Oryctolagus cuniculus; rabbit platelet rich plasma, stimulated with ℓ-C16:0 PAF (10⁻⁸ ∼ 3 x 10⁻⁸ M), 37°C; read-out: Platelet aggregation inhibition, IC₅₀
Experimental: Blood samples were obtained by cardiac puncture from a rabbit and one part by volume of each sample was immediately mixed with 0.1 part of a 3.8% w/v aqueous solution of sodium citrate. A platelet rich plasma (PRP) fraction was prepared by centrifuging the samples at 150 x G for 15 minutes at room temperature, and a platelet poor plasma (PPP) fraction was then prepared by further centrifugation at 1,000 x G for 15 minutes. The platelet count in the PRP was adjusted to 6 x 10⁵ per µℓ by the addition of an appropriate amount of the PPP fraction. According to the method reported by Born et al. [G.V.R. Born et al.: J. Physiol. 62, 67 - 68 (1962)], blood platelet aggregation was determined turbidimetrically in a 6-channel aggregometer (Hemetracer, NKB, Tokyo, Japan). Aliquots of the PRP (272 µℓ) were preincubated with 3 µℓ of a solution of the test compound in dimethyl sulphoxide for 1 minute, and then stimulated with ℓ-C16:0 PAF (at a final concentration of 10⁻⁸ ∼ 3 x 10⁻⁸ M) at 37°C with stirring (100 rpm). Changes in light transmission were monitored for 5 minutes. Vehicle (dimethyl sulphoxide) controls were tested simultaneously, and the inhibitory effects of the test compounds were assessed on the maximal aggregation. The IC₅₀ values were calculated by the method of least squares.

PAF-receptor = biological target: T1, PAF-receptor (Oryctolagus cuniculus, UniProt G1TEI7); assay: Inhibitory effect on PAF-receptor binding; design: species or system rabbit
T1 construct: a precipitated blood platelet sample was obtained; from tissue; host or cells: rabbit blood platelets, membrane fraction from the 0.25 M / 1.5 M sucrose interface
T1 sequence (G1TEI7 1-342): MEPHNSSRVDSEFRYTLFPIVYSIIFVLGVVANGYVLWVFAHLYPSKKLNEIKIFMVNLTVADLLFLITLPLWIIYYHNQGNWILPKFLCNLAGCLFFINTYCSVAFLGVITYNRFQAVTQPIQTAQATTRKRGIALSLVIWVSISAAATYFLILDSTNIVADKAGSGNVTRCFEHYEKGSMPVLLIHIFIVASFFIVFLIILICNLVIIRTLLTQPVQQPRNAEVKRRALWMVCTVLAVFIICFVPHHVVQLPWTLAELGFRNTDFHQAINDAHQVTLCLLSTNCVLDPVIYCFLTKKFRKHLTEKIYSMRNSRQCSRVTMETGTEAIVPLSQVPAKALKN
Source text: Blood samples were drawn from the heart of a rabbit. 1 part by volume of each sample was mixed immediately with 1/9 part of a 0.077 M solution of disodium ethylenediaminetetraacetate. After a similar procedure to that described in Experiment 2, a precipitated blood platelet sample was obtained. This blood platelet sample was washed, and, after repeated freesing and thawing to rupture the cells, it was placed on top of two layers consisting of 0.25 M and 1.5 M sucrose solutions. By centrifugation at 63,500 x G, for 2 hours at 4°C, the fraction obtained from the interface between the 0.25 M and 1.5 M sucrose solutions was collected and is regarded as a PAF-receptor membrane fraction. A receptor binding experiment was then conducted according to a method very similar to that reported by Hwang et al. [San-Bao Hwang et al.: J. Biol. Chem. 260, 15639 - 15645 (1985)]. The specific binding of ³H-PAF was measured using a Wattman GF/C filter. A test compound was dissolved in dimethyl sulphoxide and diluted 100 fold with a buffer solution containing 0.5% bovine serum albumin. Nine parts by volume of the solution, for a receptor binding experiment, was mixed with one part of the test compound solution prepared above. The percent inhibition of the specific binding was plotted against the log of the concentration of the test compound, and the 50% inhibitory concentration (IC₅₀) was calculated from the linear line connecting all the plotted points.

[3] = system: intracutaneous reaction in rats by PAF; assay: Inhibitory effect on intracutaneous reaction in rats by PAF; assay type: in vivo; details: dose 6.4 mg/kg p.o., 60 minutes before intradermal PAF, leaked Evans blue vs control group
Experimental: Male SD rats (5 weeks old) were used as the test animals in groups, each containing 4 animals. Each rat was administered orally with a suspension of the test compound in a 0.5% w/v aqueous tragacanth solution. Sixty minutes after the administration, aqueous physiological saline containing 1.0% w/v Evans blue was injected into the tail vein in an amount of 5 ml/kg of the body weight. Immediately after the injection, 0.05 ml of a solution containing 2 µg/ml of PAF was intradermally injected into the back of the rat to induce a cutanous reaction. After 30 minutes, the rats were sacrificed using carbon dioxide, and the quantity of Evans blue which had leaked into the skin of the back was determined by the method of Harada et al. [J. Pharm. Pharmac., 23, 218 - 219 (1971)]. The inhibition rate of the compound was calculated by comparing the average amount of colourant which had leaked in the group treated with the test compound with that of control group to which no test compound was administered.
The inhibition rate was calculated according to the following equation: Inhibition rate (%) = (1 - B/A) x 100 [formula] where: A: Amount of colourant leaked in the control group B: Amount of colourant leaked in the group to which the test compound was administered.

[4] = rabbit platelet PAF-receptor membrane fraction, specific binding of ³H-PAF, read-out: Receptor binding inhibition, IC₅₀ (g/ml) (converted)

Row | Structure (SMILES) | Inhibitory rate (%) [1] | IC50 [2] | IC50 (PAF-receptor; [4]) | IC50 (PAF-receptor) | Inhibitory rate (%) [3]
1 | O=C(NCCN1CCN2c3ccccc3Cc3ccccc3[C@H]2C1)[C@@H]1CSC(c2cccnc2)N1 (stereo partly drawn) [Example 17, (4R)-N-{2-[(14bS)-1,2,3,4,10,14b-Hexahydrodibenzo[c,f]pyrazino[1,2-a]azepin-2-yl]ethyl}-2-(3-pyridyl)thiazolidine-4-carboxamide] | 73% | – | – | – | –
2 | Cc1ccc(C(OCCN2CCN(C(=O)[C@@H]3CSC(c4cccnc4)N3)CC2)c2ccccc2)cc1 (some centres unmarked) [Example 6] | 45% | 0.055 µg/mL (≈ 0.109 µM) | 41.8 nM | – | –
3 | O=C([C@@H]1CSC(c2cccnc2)N1)N1CCN(CCOC(c2ccc(F)cc2)c2ccc(F)cc2)CC1 (stereo partly drawn) [Example 14, (4R)-1-[2-Bis(4-fluorophenyl)methoxyethyl]-4-[2-(3-pyridyl)thiazolidin-4-ylcarbonyl]piperazine] | – | 0.14 µg/mL (≈ 0.267 µM) | – | 19.1 nM | 47%
4 | O=C([C@@H]1CSC(c2cccnc2)N1)N1CCCN(CCOC(c2ccccc2)c2ccccc2)CC1 (stereo partly drawn) [Example 13, (4R)-1-(2-Diphenylmethoxyethyl)-4-[2-(3-pyridyl)thiazolidin-4-ylcarbonyl]homopiperazine] | – | 0.22 µg/mL (≈ 0.438 µM) | – | 279 nM | –
5 | O=C(NCCN1CCN2c3ccc(F)cc3Cc3ccccc3[C@H]2C1)[C@@H]1CSC(c2cccnc2)N1 (stereo partly drawn) [Example 25, (4R)-N-{2-[(14bS)-8-Fluoro-1,2,3,4,10,14b-hexahydrodibenzo[c,f]pyrazino[1,2-a]azepin-2-yl]ethyl}-2-(3-pyridyl)thiazolidine-4-carboxamide] | 55% | – | – | – | –
6 | O=C([C@@H]1CSC(c2cccnc2)N1)N1CCN(CCN2CCC(=C(c3ccccc3)c3ccccc3)CC2)CC1 (stereo partly drawn) [Example 5, (4R)-1-{2-[4-(Diphenylmethylene)-1-piperidinyl]ethyl}-4-[2-(3-pyridyl)thiazolidin-4-ylcarbonyl]piperazine] | 42% | – | – | – | –
7 | O=C(NCCN1CCN2c3ccccc3Cc3ccccc3[C@@H]2C1)[C@@H]1CSC(c2cccnc2)N1 (stereo partly drawn) [Example 16, (4R)-N-{2-[(14bR)-1,2,3,4,10,14b-Hexahydrodibenzo[c,f]pyrazino[1,2-a]azepin-2-yl]ethyl}-2-(3-pyridyl)thiazolidine-4-carboxamide] | 62% | – | – | – | 62%
8 | O=C([C@@H]1CSC(c2cccnc2)N1)N1CCN(CCOC(c2ccccc2)c2ccccc2)CC1 (stereo partly drawn) [Example 7, (4R)-1-(2-Diphenylmethoxyethyl)-4-[2-(3-pyridyl)thiazolidin-4-ylcarbonyl]piperazine] | – | 0.095 µg/mL (≈ 0.194 µM) | – | 51.2 nM | 70%
9 | CN(CCOC(c1ccccc1)c1ccccc1)CCN(C)C(=O)[C@@H]1CSC(c2cccnc2)N1 (stereo partly drawn) [Example 1, (4R)-N-Methyl-N-{2-[N-(2-diphenylmethoxyethyl)-N-methylamino]ethyl}-2-(3-pyridyl)thiazolidine-4-carboxamide] | 33% | 0.063 µg/mL (≈ 0.128 µM) | – | – | 57%
10 | O=C([C@@H]1CSC(c2cccnc2)N1)N1CCCN(CCOC(c2ccc(F)cc2)c2ccc(F)cc2)CC1 (stereo partly drawn) [Example 12, (4R)-1-[2-Bis(4-fluorophenyl)methoxyethyl]-4-[2-(3-pyridyl)thiazolidin-4-ylcarbonyl]homopiperazine] | – | 0.19 µg/mL (≈ 0.353 µM) | – | 390 nM | –
11 | O=C([C@@H]1CSC(c2cccnc2)N1)N1CCN(CCOC(c2ccccc2)c2ccc(Cl)cc2)CC1 (some centres unmarked) [Example 4] | – | 0.085 µg/mL (≈ 0.162 µM) | 51.6 nM | – | 64%
12 | O=C([C@@H]1CSC(c2cccnc2)N1)N1CCN(CCOC(c2ccccc2)C2CCCCC2)CC1 (stereo partly drawn) [Example 11, (4R)-1-[2-(α-Cyclohexylbenzyloxy)ethyl]-4-[2-(3-pyridyl)thiazolidin-4-ylcarbonyl]piperazine] | – | 0.072 µg/mL (≈ 0.146 µM) | 445 nM | – | –
